The values below come from patent publication US12421227B2, “Ribociclib salts and solid state forms thereof” (ASSIA CHEMICAL INDUSTRIES LTD., priority 2017, dated 2025).

The conditions of data set [1]: cited from earlier work.
The conditions of data set [2]: exposure to 90% RH; cited from earlier work.

In the case of Ribociclib succinate, the “sorption/desorption behavior, hydrate formation” value in data set [1] (90% RH condition in each cycle) is “formation of hydrate form is taking place”. Moreover, the moisture absorbed entry in data set [1] (at 90% RH in each cycle) was “up to 2%”. Further, the hygroscopic behavior entry in data set [1] (at high humidity conditions) is “slight hygroscopic behavior”. The “physical form on exposure to humidity” value in data set [2] is “change in physical form”.

Take Ribociclib succinate [Form B]: the hygroscopicity result is recorded as “negligible hygroscopicity”.
